In article PMC4805609, “Estrogenic Effects of Several BPA Analogs in the Developing Zebrafish Brain” (Frontiers in Neuroscience, 2016):

Experiments:
cyp19a1b gene = test: RT-qPCR of cyp19a1b transcripts in wild type 7-dpf larva brains; details: for fold induction at 1 µM: Danio rerio, read-out: cyp19a1b gene expression, fold induction relative to DMSO, 1 μM, 7-dpf larvae brains, six independent exposures, Figure 1B
Description: (§1) For subsequent RT-qPCR and in situ hybridization analysis with wild type zebrafish, groups of 80 embryos (for each condition) were placed after 1 day post-fertilization (1-dpf) in a large glass flask containing 100 ml of embryonic medium (Mouriec et al., [2009b]). […] The embryos were held in the exposure flasks until 7-dpf larva stage. […] Embryos were maintained in the exposure dishes until 4-dpf larva stage. During the treatment period, 100% of the exposure medium was renewed every 24 h (for both wild type and transgenic zebrafish).
Tissue was sonicated (10 s, 3 times) in 250 μL Trizol Reagent (Invitrogen) and RNA extractions were carried out according to the manufacturer's protocol. Reverse transcription was carried out by incubating 2μg total RNA with 1μg of random primer oligonucleotides, 2.5ṁM dNTPs, and 50 U MMLV-RT (Promega) in the appropriate buffer for 10 min at 65°C and 60 min at 37°C. Quantitative Polymerase chain reaction (qPCR) experiments were performed in an iCycler thermocycler coupled to the MyiQ detector (Bio-Rad. Hercules, CA, USA) using iQ SYBR-Green Supermix (Bio-Rad) according to the manufacturer's protocol. The following primers were used: ef1 (fw) 5′-[…]-3′; ef1 (rev) 5′-[…]-3′; cyp19a1b (AroB; fw) 5′-[…] For each condition, the RT-PCR experiment was run in triplicates. Expression levels of ef1 mRNA were used to normalize cyp19a1b expression levels. Melting curve and PCR efficiency analyses were performed to confirm correct amplification. For quantification of PCR results, the threshold cycle (Ct) was determined for each reaction. Ct values for each gene of interest were normalized with the housekeeping gene ef1, using the ΔΔCt method. Normalized values were used to calculate the degree of induction or inhibition expressed as a “fold difference” compared to normalized control values.

cyp19a1b promoter = test: EASZY assay: GFP fluorescence in brain of live cyp19a1b-GFP transgenic 4-dpf larvae; format: in vivo, zebrafish; details: 4-dpf cyp19a1b-GFP larvae, exposure 2 hpf to 4 dpf; for fold induction at 1 µM: Danio rerio, read-out: GFP fluorescence, fold induction above DMSO control
Description: Quantification of fluorescence in transgenic cyp19a1b-GFP zebrafish larva brain was performed according to Brion et al. ([2012]). In this assay, estrogenic activity is detected in living 4 days-old larvae (treated or not with an estrogen mimic compound) from the observation of the reporter gene fluorescence in the radial glial cells. […] All photographs were taken using the same parameters: only the head was photographed under a X10 objective, with a 134 ms exposure time and maximal intensity. Photographs were analyzed using the Axiovision Imaging software and fluorescence quantification was performed using the ImageJ software (http://rsbweb.nih.gov/ij/). For each picture, the integrated density was measured, i.e., the sum of the gray-values of all the pixels within the region of interest. A gray-value of 290 was defined as background value. For each micrograph the fluorescence fold induction of fluorescence was calculated comparing the integrated pixel density with the average fluorescence induction obtained in the control group.

zfERα = target: T1, zfERα (Danio rerio, UniProt P57717); test: cyp19a1b-luciferase reporter gene assay in U251-MG glial cells transfected with zfERα; format: cell-based, zebrafish; design: containing the coding regions of each zebrafish estrogen receptor cDNA; expressed in transfected cells; host or cells: human U251-MG glial cells (ER-negative); details: 10–6 M, 24 h, U251-MG cells with ERα, vs DMSO
T1 sequence (P57717 1-569): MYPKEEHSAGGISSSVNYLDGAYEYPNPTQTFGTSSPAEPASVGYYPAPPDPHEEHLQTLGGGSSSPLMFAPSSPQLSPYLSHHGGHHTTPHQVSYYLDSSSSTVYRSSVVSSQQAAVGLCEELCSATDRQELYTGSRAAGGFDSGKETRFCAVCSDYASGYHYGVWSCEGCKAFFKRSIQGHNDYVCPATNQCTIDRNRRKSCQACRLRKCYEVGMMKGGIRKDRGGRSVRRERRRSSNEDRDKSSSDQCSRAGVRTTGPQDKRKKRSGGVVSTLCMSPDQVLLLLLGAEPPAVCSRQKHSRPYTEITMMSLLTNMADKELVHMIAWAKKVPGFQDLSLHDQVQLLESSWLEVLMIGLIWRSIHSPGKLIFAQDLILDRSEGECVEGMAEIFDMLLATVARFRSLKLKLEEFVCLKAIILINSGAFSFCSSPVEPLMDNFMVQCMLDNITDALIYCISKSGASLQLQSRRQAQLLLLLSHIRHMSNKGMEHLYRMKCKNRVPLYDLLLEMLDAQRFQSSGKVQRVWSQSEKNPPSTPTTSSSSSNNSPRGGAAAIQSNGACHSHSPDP
Description: The medium was also supplemented with 20 U/mL penicillin, 20 μg/mL streptomycin, and 50 ng/mL amphotericin B (Gibco). For transfections, cells were plated in 24-well plates at a density of 25,000 cells/ml in the same medium, except the fetal calf serum was charcoal-treated and used at a concentration of 2.5%. Cells were transfected with 25 ng/well either the vector expression containing or not the zfERα, zfERβ1, zfERβ2 coding region and cytomegalovirus [CMV]−β-Galactosidase, and 150 ng/well of the cyp19a1b-Luciferase reporter plasmid, using JetPEI as a transfection reagent (Polyplus Transfection, Illkirch, France). […] Luciferase activity was measured 24 h later (Luciferase assay system, Promega, Madison, WI, USA). β-Galactosidase activity was used to normalize transfection efficiency. Chemicals were tested in at least 3 independent experiments and each experiment was performed in triplicate.

cyp19a1b transcripts = test: cyp19a1b in situ hybridization on 7-dpf brain sections; format: in vivo, zebrafish; details: 1 μM, 7-dpf larvae; for distribution of cyp19a1b transcripts in the whole brain: transverse sections
Description: as §1
Larvae used for in situ hybridization experiments originated from the same exposition groups than RT-qPCR experiments. After exposure to the different conditions, 10 wild type 7-dpf larvae (for each treatment) were fixed overnight at 4°C in 4% paraformaldehyde, before embedding in parrafin. Serial thin transverse sections ([…]) were placed on cryofrost slides and subjected to in situ hybridization experiments. Sense and antisense digoxigenin-labeled riboprobes for the cyp19a1b gene were transcribed using the Digoxigenin RNA labeling kit in accordance with the manufacturer's instructions (Roche, Mannheim, Germany) and as previously described (Menuet et al., [2005]). The brain sections were processed for in situ hybridization using stringent conditions as previously published (D'Amico et al., [2011], [2013]). After NBT/BCIP revelation, sections were counterstained with DAPI, and mounted in a drop of vectashield (Vector Laboratories). All sections were photographed with an Olympus PROVIS AX70 microscope with a digital camera (Olympus SP71), or a Nikon multizoom AZ100 macroscope with a DS-Ri1 color camera.

| SMILES | fold induction at 1 µM (cyp19a1b gene) | fold induction at 1 µM (cyp19a1b promoter) | cyp19a1b-luciferase reporter gene induction (zfERα) | distribution of cyp19a1b transcripts in the whole brain (cyp19a1b transcripts) | cyp19a1b gene expression, fold induction relative to DMSO (cyp19a1b gene; 1 μM, 7-dpf larvae brains, six independent exposures, Figure 1B) | GFP fluorescence, fold induction above DMSO control (cyp19a1b promoter; 1 μM) | cyp19a1b transcripts in the nucleus recessus posterioris (nrp), caudal hypothalamus (cyp19a1b transcripts) |
| --- | --- | --- | --- | --- | --- | --- | --- |
| Oc1ccc(C(c2ccc(O)cc2)(C(F)(F)F)C(F)(F)F)cc1 [BPAF, 2,2-bis(4-hydroxylphenyl)hexafluoropropane] | ~43 | 14 | significant stimulation | identical to EE2- and BPA-treated animals |  |  |  |
| CC(c1ccccc1)(c1ccc(O)cc1)c1ccc(O)cc1 [BPAP, 4,4′-(1-phenylethylidene)bisphenol] |  |  | did not stimulate | induces expression of cyp19a1b transcripts in only a few (xeno) estrogen-sensitive cyp19a1b expression sites | no effect | did not affect GFP fluorescence signal | increase in cyp19a1b transcripts in the nrp region (Figure 5H) albeit to a lower levels |
| O=S(=O)(c1ccc(O)cc1)c1ccc(O)cc1 [BPS, bis-(4-hydroxyphenyl)sulfone] | ~41 | 6 | did not stimulate | identical to EE2- and BPA-treated animals |  |  |  |
